Test results taken from patent US11180521B2, “Nicotinamide riboside analogs, pharmaceutical compositions, and uses thereof” (Metro International Biotech, LLC, priority 2018, dated 2021).

Tests used:
Assay type in all cases: in vivo, C57BL/6 mice
[1] = PK/PD duration of effect study, single oral gavage dose: administered compound level in skeletal muscle; design: key to transcyclohexyl NaR dimer concentration: BQL: Below quantitation limit; BDL: Below Detection Limit, No Peak Detected; settings: pre-dose BQL
Protocol: (§1) Transcyclohexyl nicotinic acid riboside (NaR) dimer was administered by oral gavage at a dose of 500 mg/kg in an Ethanol/PBS, pH 7.4/PEG400 (10/30/60) vehicle. The dosing volume was 5 ml/kg at a solution concentration of 100 mg/ml. The solution concentration was increased for the presence of counterion.
(§2) Animals were fasted for 16 hours prior to dosing. Samples were collected pre-dose and at 0.25, 0.75, 1, 2, 4, 8 and 24 hr post dosing. Following euthanasia, the entire liver and skeletal muscle (gastrocnemius with attached soleus muscle, bilateral) were rinsed with 0.9% saline, and frozen for later bioanalysis. Samples were maintained frozen at −80° C. until bioanalysis.
(§3) Samples were thawed, homogenized, extracted and analyzed by LC-MS on the same day. The LC used was a Shimadzu Nexera UPLC, and the mass spectrometer was an AB Sciex Qtrap 6500. Specimens were analyzed for levels of administered compound (transcyclohexyl NaR dimer), as well as for levels of NAD, NAAD, NAM, and NMN by the method of standard addition, to detect alterations from the basal levels of the analytes. Calibration standards for quantifying administered compound were prepared using transcyclohexyl NaR dimer in mouse liver or skeletal muscle homogenates. Corresponding standards for quantifying other metabolites were also prepared. Data are calculated as the mean concentration from n=6 animals per time point.

[2] = test system: NAD, NAAD, NAM, and NMN levels in skeletal muscle; test: PK/PD duration of effect study, single oral gavage dose: NAD, NAAD, NAM and NMN levels in skeletal muscle; design: key to NAAD concentration: BQL: Below quantitation limit; BDL: Below Detection Limit, No Peak Detected; settings: for NAAD concentration: pre-dose BDL
Protocol: as §1, §2, §3

[3] = PK/PD duration of effect study, single oral gavage dose: administered compound level in liver
Protocol: as §1, §2, §3

[4] = 0.25 hr after 500 mg/kg oral gavage
[5] = 1 hr after 500 mg/kg oral gavage
[6] = 2 hr after 500 mg/kg oral gavage
[7] = 24 hr after 500 mg/kg oral gavage

Structure (SMILES): CC(=O)OC[C@H]1O[C@@H]([n+]2cccc(C(=O)O[C@H]3CC[C@H](OC(=O)c4ccc[n+]([C@@H]5O[C@H](COC(C)=O)[C@@H](OC(C)=O)[C@H]5OC(C)=O)c4)CC3)c2)[C@H](OC(C)=O)[C@@H]1OC(C)=O [transcyclohexyl NaR dimer, Transcyclohexyl nicotinic acid riboside (NaR) dimer]
- transcyclohexyl NaR dimer concentration [1, 4]: 0.0142 mmol/kg
- transcyclohexyl NaR dimer concentration [1, 5]: 0.00109 mmol/kg
- transcyclohexyl NaR dimer concentration [1, 6]: BQL
- transcyclohexyl NaR dimer concentration ([1]; 4 hr after 500 mg/kg oral gavage): BQL
- transcyclohexyl NaR dimer concentration ([1]; 8 hr after 500 mg/kg oral gavage): BQL
- transcyclohexyl NaR dimer concentration [1, 7]: BQL
- concentration at 0.25 h ([1]; C57BL/6, mouse, 0.25 hr after 500 mg/kg oral gavage, read-out: transcyclohexyl NaR dimer concentration): 12000 ng/g
- concentration at 1 h ([1]; C57BL/6, mouse, 1 hr after 500 mg/kg oral gavage, read-out: transcyclohexyl NaR dimer concentration): 921 ng/g
- NMN concentration ([2]; 0.25 hr after 500 mg/kg oral gavage, pre-dose 0.00225): 0.002 mmol/kg
- NAM concentration ([2]; 0.25 hr after 500 mg/kg oral gavage, pre-dose 0.159): 0.161 mmol/kg
- NMN concentration ([2]; 0.25 hr after 500 mg/kg oral gavage, pre-dose 0.752): 0.667 µg/g
- NAD concentration ([2]; 0.25 hr after 500 mg/kg oral gavage, pre-dose 0.781): 0.826 mmol/kg
- NAM concentration ([2]; 0.25 hr after 500 mg/kg oral gavage, pre-dose 19.4): 19.7 µg/g
- NAD concentration ([2]; 0.25 hr after 500 mg/kg oral gavage, pre-dose 518): 548 µg/g
- NAAD concentration [2, 4]: BDL
- NMN concentration ([2]; 0.75 hr after 500 mg/kg oral gavage, pre-dose 0.00225): 0.00196 mmol/kg
- NAM concentration ([2]; 0.75 hr after 500 mg/kg oral gavage, pre-dose 0.159): 0.208 mmol/kg
- NMN concentration ([2]; 0.75 hr after 500 mg/kg oral gavage, pre-dose 0.752): 0.656 µg/g
- NAD concentration ([2]; 0.75 hr after 500 mg/kg oral gavage, pre-dose 0.781): 0.861 mmol/kg
- NAM concentration ([2]; 0.75 hr after 500 mg/kg oral gavage, pre-dose 19.4): 25.3 µg/g
- NAD concentration ([2]; 0.75 hr after 500 mg/kg oral gavage, pre-dose 518): 571 µg/g
- NAAD concentration ([2]; 0.75 hr after 500 mg/kg oral gavage): BDL
- NMN concentration ([2]; 1 hr after 500 mg/kg oral gavage, pre-dose 0.00225): 0.00173 mmol/kg
- NAM concentration ([2]; 1 hr after 500 mg/kg oral gavage, pre-dose 0.159): 0.184 mmol/kg
- NMN concentration ([2]; 1 hr after 500 mg/kg oral gavage, pre-dose 0.752): 0.579 µg/g
- NAD concentration ([2]; 1 hr after 500 mg/kg oral gavage, pre-dose 0.781): 0.720 mmol/kg
- NAM concentration ([2]; 1 hr after 500 mg/kg oral gavage, pre-dose 19.4): 22.4 µg/g
- NAD concentration ([2]; 1 hr after 500 mg/kg oral gavage, pre-dose 518): 478 µg/g
- NAAD concentration [2, 5]: BDL
- NMN concentration ([2]; 2 hr after 500 mg/kg oral gavage, pre-dose 0.00225): 0.00191 mmol/kg
- NAM concentration ([2]; 2 hr after 500 mg/kg oral gavage, pre-dose 0.159): 0.0918 mmol/kg
- NMN concentration ([2]; 2 hr after 500 mg/kg oral gavage, pre-dose 0.752): 0.639 µg/g
- NAD concentration ([2]; 2 hr after 500 mg/kg oral gavage, pre-dose 0.781): 0.875 mmol/kg
- NAM concentration ([2]; 2 hr after 500 mg/kg oral gavage, pre-dose 19.4): 11.2 µg/g
- NAD concentration ([2]; 2 hr after 500 mg/kg oral gavage, pre-dose 518): 581 µg/g
- NAAD concentration [2, 6]: BDL
- NMN concentration ([2]; 4 hr after 500 mg/kg oral gavage, pre-dose 0.00225): 0.00222 mmol/kg
- NAM concentration ([2]; 4 hr after 500 mg/kg oral gavage, pre-dose 0.159): 0.166 mmol/kg
- NMN concentration ([2]; 4 hr after 500 mg/kg oral gavage, pre-dose 0.752): 0.740 µg/g
- NAD concentration ([2]; 4 hr after 500 mg/kg oral gavage, pre-dose 0.781): 0.726 mmol/kg
- NAM concentration ([2]; 4 hr after 500 mg/kg oral gavage, pre-dose 19.4): 20.2 µg/g
- NAD concentration ([2]; 4 hr after 500 mg/kg oral gavage, pre-dose 518): 482 µg/g
- NMN concentration ([2]; 8 hr after 500 mg/kg oral gavage, pre-dose 0.00225): 0.00245 mmol/kg
- NAM concentration ([2]; 8 hr after 500 mg/kg oral gavage, pre-dose 0.159): 0.170 mmol/kg
- NMN concentration ([2]; 8 hr after 500 mg/kg oral gavage, pre-dose 0.752): 0.818 µg/g
- NAD concentration ([2]; 8 hr after 500 mg/kg oral gavage, pre-dose 0.781): 0.648 mmol/kg
- NAM concentration ([2]; 8 hr after 500 mg/kg oral gavage, pre-dose 19.4): 20.8 µg/g
- NAD concentration ([2]; 8 hr after 500 mg/kg oral gavage, pre-dose 518): 430 µg/g
- NMN concentration ([2]; 24 hr after 500 mg/kg oral gavage, pre-dose 0.00225): 0.00199 mmol/kg
- NAM concentration ([2]; 24 hr after 500 mg/kg oral gavage, pre-dose 0.159): 0.155 mmol/kg
- NMN concentration ([2]; 24 hr after 500 mg/kg oral gavage, pre-dose 0.752): 0.665 µg/g
- NAD concentration ([2]; 24 hr after 500 mg/kg oral gavage, pre-dose 0.781): 0.635 mmol/kg
- NAM concentration ([2]; 24 hr after 500 mg/kg oral gavage, pre-dose 19.4): 18.9 µg/g
- NAD concentration ([2]; 24 hr after 500 mg/kg oral gavage, pre-dose 518): 421 µg/g
- NAAD concentration [2, 7]: BDL
- % AUC Extrap of transcyclohexyl NaR dimer ([3]; 500 mg/kg oral gavage): 0.00%
- AUC(0-x) of transcyclohexyl NaR dimer ([3]; 500 mg/kg oral gavage): 3.05 µg·h/g
- AUC(0-∞) of transcyclohexyl NaR dimer ([3]; 500 mg/kg oral gavage): 3.05 µg·h/g
- transcyclohexyl NaR dimer concentration ([3]; 0.25 hr after 500 mg/kg oral gavage, pre-dose BQL): 0.0125 mmol/kg
